Measured values as given in ChEMBL document CHEMBL1201862, “PubChem BioAssay data set” (2004).
The source made the active and inactive calls.

Assays:
[1] = molecular target: Luciferin 4-monooxygenase (Photinus pyralis, UniProt P08659); assay: inhibition of purified Photinus pyralis luciferase – biochemical, luminescence, dose response (AID 1891)
[2] = Luminescence Cell-Based Dose Confirmation HTS to Identify Inhibitors of Platelet Dense Granule Release. [Related pubchem assays: 1663 (Primary HTS), 1678 (Summary of Project)]; format: functional
[3] = A cytotoxicity screen of small molecule inhibitors of the PhoP region in Salmonella typhi identified in the primary screen. [Related pubchem assays: 1850, 1864, 1985 ]; format: functional
Ion channel NompC = Ion channel NompC (Danio rerio, UniProt Q7T1G6); assay: Fluorescence counterscreen assay for TRPML3 agonists: dose response cell-based high-throughput screening assay to identify agonists of the transient receptor potential channel N1 (TRPN1). [Related pubchem assays: 1526, 1424, 1448 ]; format: functional
Chain of Ion channel NompC (Q7T1G6 whole entry): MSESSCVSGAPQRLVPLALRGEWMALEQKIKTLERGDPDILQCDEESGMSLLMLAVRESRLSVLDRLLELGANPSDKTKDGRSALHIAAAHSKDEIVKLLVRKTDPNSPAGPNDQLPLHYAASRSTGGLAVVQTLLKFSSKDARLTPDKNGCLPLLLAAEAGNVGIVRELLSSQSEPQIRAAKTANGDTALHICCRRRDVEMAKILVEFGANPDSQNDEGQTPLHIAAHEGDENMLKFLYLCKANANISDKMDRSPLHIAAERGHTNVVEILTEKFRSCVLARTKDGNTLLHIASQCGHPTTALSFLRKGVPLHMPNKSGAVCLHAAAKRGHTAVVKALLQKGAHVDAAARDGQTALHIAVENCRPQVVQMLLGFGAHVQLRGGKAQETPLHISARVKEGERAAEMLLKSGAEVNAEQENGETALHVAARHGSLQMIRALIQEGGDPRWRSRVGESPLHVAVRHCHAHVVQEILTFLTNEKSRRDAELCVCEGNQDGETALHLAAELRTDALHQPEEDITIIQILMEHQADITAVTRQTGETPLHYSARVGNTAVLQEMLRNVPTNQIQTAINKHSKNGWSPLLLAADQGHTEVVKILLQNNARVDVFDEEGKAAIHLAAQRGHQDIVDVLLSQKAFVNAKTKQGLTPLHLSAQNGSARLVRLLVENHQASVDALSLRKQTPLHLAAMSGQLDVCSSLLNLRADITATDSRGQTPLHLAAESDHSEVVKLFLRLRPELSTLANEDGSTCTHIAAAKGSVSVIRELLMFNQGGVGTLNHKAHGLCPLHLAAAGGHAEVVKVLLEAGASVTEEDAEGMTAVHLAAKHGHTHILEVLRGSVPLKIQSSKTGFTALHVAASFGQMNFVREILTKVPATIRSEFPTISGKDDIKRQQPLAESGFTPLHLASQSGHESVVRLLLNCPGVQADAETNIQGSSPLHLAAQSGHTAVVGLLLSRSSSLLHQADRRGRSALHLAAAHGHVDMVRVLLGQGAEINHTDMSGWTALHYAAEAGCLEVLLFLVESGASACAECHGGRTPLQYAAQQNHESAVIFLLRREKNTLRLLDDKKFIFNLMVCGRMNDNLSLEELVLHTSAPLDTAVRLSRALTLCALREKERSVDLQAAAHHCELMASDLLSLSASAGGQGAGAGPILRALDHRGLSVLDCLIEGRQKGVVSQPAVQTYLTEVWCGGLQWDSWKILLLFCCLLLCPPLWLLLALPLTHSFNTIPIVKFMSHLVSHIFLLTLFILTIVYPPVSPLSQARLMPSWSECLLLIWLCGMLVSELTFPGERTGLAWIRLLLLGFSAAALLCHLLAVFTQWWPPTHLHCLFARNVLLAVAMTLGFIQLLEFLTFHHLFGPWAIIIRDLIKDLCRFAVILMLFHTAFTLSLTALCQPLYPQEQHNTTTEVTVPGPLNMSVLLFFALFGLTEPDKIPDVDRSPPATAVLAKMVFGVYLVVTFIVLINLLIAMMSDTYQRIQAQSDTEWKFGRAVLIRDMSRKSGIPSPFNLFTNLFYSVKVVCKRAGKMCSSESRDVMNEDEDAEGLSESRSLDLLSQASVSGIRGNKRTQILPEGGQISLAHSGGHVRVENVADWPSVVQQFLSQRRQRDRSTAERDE

Mucolipin-3 = molecular target: T1, Mucolipin-3 (Homo sapiens, UniProt Q8TDD5); assay: Dose response cell-based high-throughput screening assay for agonists of the transient receptor potential channel ML3 (TRPML3). [Related pubchem assays: 1526, 1424, 1448 ]; format: functional
T1 sequence (Q8TDD5 whole entry): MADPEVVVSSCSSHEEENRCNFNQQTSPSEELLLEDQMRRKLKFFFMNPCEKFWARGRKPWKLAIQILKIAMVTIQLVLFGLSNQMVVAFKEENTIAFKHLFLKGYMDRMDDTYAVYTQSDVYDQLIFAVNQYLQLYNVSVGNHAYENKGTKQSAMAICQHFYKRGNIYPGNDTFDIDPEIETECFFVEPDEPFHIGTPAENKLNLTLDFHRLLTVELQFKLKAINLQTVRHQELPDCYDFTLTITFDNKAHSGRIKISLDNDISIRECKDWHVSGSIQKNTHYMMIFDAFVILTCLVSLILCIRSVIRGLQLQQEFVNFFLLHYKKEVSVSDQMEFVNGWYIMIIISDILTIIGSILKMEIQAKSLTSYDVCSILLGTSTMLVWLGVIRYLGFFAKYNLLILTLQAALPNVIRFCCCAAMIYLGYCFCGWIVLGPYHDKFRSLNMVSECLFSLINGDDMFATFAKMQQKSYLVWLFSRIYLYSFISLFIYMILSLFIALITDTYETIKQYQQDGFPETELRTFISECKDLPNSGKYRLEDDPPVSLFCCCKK

Ephrin type-A receptor 4 = Ephrin type-A receptor 4 (Mus musculus, UniProt Q03137); assay: EphA4 ligand-binding antagonists – biochemical, colorimetric, mouse EphA4, primary screen (AID 689); format: functional
Chain of Ephrin type-A receptor 4 (Q03137 whole entry): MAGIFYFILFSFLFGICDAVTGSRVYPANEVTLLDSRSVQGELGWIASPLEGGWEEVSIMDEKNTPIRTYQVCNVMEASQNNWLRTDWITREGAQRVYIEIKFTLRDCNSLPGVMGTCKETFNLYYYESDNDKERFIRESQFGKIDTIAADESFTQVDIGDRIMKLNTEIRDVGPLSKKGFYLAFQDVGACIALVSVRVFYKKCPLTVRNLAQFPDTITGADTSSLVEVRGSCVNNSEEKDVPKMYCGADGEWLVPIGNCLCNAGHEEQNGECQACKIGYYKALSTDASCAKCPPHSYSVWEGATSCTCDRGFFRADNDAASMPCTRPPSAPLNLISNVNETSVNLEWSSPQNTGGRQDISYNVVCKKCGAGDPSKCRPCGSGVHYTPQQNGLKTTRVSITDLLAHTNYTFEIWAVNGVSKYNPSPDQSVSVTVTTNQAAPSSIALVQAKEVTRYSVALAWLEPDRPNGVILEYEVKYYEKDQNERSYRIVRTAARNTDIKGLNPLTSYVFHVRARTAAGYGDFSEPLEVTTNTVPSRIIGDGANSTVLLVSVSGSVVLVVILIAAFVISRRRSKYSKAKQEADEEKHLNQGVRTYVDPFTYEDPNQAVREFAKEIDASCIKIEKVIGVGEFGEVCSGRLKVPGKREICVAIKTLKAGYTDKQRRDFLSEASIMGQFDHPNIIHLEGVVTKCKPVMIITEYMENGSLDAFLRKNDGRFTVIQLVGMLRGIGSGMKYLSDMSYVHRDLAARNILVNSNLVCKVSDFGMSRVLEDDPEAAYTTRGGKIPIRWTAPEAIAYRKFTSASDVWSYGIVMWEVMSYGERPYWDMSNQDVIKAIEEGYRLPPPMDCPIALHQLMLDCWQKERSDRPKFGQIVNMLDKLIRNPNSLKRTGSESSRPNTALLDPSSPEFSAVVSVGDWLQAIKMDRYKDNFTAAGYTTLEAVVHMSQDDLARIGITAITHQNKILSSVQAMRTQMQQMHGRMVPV

[4] = viability loss of HPDE-C7K cells – cell-based, fluorescence, HTS, primary screen (AID 431); format: functional; conditions: Homo sapiens
Streptokinase A = molecular target: T2, Streptokinase A (Streptococcus pyogenes serotype M1, UniProt P10520); assay: viability-normalized secreted streptokinase activity reduction – plasminogen activation absorbance, OD405, dose response (AID 1914); format: functional, Streptococcus pyogenes M1 GAS;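 also: secreted streptokinase activity via plasminogen activation per viability signal from cell pellet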
T2 sequence (P10520 whole entry): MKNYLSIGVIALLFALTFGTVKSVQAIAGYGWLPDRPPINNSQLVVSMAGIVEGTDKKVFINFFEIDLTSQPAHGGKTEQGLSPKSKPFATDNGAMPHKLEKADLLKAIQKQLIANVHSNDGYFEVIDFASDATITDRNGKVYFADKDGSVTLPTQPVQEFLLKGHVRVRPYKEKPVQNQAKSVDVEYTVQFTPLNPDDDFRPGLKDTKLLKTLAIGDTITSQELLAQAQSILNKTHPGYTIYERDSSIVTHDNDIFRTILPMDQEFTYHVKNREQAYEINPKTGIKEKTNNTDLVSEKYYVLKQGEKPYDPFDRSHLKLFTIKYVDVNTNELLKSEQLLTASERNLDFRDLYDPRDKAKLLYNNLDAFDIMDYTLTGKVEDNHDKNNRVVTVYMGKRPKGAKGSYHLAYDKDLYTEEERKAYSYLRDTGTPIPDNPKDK

[5] = viability of PTEN-deleted HCT116 cells – cell-based, HCT116 PTEN knockout, dose response (AID 1047); format: functional;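 also: HCT116 colon tumor cells with PTEN knocked out; cells exposed to compound for 60 hours before readout; potency for loss of cell viability measured by luminescence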
Streptococcus = assay: GAS UMAA2166 growth inhibition – luminescence, BacTiterGlo, counter-screen for streptokinase expression inhibitor project, dose response (AID 1915); format: functional, organism-based;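 also: potency for reduction of bacterial viability or growth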
Caspase-3 = molecular target: T3, Caspase-3 (Homo sapiens, UniProt P42574); format: functional;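 also: Dose-response selectivity test against caspase-3 for candidate inhibitors of sentrin-specific proteases (SENPs)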
T3 sequence (P42574 whole entry): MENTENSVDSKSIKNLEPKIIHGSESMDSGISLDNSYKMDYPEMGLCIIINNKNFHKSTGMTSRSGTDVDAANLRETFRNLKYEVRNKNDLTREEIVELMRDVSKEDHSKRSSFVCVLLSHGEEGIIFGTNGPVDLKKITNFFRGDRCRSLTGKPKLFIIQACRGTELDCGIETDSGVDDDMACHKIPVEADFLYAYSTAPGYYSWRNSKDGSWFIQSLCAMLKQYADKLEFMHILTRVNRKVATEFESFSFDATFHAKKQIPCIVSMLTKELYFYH

[6] = molecular target: Heat shock protein HSP 90-alpha (Homo sapiens, UniProt P07900); format: functional, organism-based
[7] = molecular target: T4, Sentrin-specific protease 8 (Homo sapiens, UniProt Q96LD8); format: functional;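 also: luminescence read-out of SENP8 inhibition, dose-response confirmation following an ultra-high-throughput screen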
T4 sequence (Q96LD8 whole entry): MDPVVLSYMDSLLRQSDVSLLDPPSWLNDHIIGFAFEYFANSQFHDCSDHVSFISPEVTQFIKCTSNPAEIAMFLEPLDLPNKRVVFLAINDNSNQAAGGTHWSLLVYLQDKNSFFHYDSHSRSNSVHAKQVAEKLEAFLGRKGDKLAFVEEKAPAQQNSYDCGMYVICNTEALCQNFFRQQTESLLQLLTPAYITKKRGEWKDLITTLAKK

[8] = molecular target: T5, Sentrin-specific protease 6 (Homo sapiens, UniProt Q9GZR1); format: functional;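 also: Luminescence-based dose-response confirmatory assay of SENP6 inhibition, following up an ultra-high-throughput screen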
T5 sequence (Q9GZR1 whole entry): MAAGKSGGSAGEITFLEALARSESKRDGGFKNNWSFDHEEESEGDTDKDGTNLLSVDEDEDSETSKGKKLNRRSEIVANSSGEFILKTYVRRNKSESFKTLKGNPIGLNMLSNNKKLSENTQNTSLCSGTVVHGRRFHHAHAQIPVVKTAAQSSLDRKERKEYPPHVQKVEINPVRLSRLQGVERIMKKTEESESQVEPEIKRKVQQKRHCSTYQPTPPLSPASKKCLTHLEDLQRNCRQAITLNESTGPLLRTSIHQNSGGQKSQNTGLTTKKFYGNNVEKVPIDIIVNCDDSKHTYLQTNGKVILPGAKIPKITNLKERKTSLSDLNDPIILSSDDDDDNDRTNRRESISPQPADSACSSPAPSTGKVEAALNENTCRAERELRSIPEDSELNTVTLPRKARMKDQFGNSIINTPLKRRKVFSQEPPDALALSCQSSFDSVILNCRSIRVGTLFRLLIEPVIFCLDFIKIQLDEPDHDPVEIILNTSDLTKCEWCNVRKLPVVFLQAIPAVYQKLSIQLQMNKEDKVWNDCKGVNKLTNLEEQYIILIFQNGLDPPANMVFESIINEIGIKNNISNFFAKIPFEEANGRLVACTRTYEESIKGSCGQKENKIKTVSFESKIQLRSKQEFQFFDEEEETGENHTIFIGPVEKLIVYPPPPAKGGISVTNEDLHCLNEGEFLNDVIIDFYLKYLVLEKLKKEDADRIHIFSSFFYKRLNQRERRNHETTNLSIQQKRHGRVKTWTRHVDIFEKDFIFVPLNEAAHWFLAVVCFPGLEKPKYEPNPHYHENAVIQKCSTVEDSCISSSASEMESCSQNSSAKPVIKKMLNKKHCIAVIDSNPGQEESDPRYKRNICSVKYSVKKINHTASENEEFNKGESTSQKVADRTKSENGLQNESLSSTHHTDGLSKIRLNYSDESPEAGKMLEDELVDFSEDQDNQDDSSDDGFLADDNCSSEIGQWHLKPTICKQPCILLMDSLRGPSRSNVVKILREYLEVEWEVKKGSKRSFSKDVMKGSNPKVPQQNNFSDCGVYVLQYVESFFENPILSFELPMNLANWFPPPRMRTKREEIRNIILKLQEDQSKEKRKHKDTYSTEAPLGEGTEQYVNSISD

[9] = system: Streptococcus sp. 'group A'; assay: Streptococcus pyogenes SK(-)GAS viability under kanamycin – luminescence, BacTiterGlo, confirmation, counter-screen for streptokinase expression inhibitor project, dose response (AID 1900); format: functional, organism-based
[10] = molecular target: T6, Sentrin-specific protease 7 (Homo sapiens, UniProt Q9BQF6); format: functional;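 also: Luminescence-based dose-response confirmation of ultra-high-throughput screening hits, measuring inhibition of SENP7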
T6 sequence (Q9BQF6 whole entry): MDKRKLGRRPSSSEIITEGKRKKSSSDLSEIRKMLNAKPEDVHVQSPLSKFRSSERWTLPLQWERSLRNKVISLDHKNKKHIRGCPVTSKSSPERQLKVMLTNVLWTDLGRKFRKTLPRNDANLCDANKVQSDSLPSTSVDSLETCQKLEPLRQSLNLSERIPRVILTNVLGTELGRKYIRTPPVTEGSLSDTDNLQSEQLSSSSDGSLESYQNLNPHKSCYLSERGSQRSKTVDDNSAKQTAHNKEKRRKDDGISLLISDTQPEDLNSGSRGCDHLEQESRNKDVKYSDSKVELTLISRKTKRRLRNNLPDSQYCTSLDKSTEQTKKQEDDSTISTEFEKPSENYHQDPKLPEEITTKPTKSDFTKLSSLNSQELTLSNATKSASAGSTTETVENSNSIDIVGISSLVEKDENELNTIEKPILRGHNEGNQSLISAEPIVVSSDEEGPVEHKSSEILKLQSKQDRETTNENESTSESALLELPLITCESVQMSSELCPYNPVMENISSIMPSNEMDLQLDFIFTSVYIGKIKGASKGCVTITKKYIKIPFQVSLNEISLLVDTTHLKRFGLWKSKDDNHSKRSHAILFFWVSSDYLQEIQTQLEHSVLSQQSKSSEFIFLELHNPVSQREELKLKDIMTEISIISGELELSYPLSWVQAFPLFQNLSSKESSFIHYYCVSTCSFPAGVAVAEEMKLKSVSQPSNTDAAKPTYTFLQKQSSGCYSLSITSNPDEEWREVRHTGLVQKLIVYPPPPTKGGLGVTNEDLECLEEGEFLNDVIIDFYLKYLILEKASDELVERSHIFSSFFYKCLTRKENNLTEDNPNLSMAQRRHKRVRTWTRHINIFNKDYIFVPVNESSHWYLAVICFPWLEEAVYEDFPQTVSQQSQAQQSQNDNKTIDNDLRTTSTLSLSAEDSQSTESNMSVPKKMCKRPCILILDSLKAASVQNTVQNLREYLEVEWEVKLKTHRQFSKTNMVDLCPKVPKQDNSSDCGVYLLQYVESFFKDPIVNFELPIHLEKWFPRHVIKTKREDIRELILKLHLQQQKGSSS

[11] = viability of HCT116 lacking mutant beta-catenin – cell-based, human colon tumor, dose response (AID 1045); format: functional;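 also: HCT116 colon tumor cells with beta catenin knocked out; cells exposed to compound for 60 hours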
[12] = HPDE-C7 pancreatic duct cell viability loss – fluorescence, HTS (AID 430); format: functional, cell-based; conditions: Homo sapiens
Estrogen receptor beta = Estrogen receptor beta (Homo sapiens, UniProt Q92731);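 also: recombinant ER-beta bound to coactivator SRC1 peptide in presence of estradiol agonist; inhibitors block coactivator peptide binding and lower the FRET signal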
Chain of Estrogen receptor beta (Q92731 whole entry): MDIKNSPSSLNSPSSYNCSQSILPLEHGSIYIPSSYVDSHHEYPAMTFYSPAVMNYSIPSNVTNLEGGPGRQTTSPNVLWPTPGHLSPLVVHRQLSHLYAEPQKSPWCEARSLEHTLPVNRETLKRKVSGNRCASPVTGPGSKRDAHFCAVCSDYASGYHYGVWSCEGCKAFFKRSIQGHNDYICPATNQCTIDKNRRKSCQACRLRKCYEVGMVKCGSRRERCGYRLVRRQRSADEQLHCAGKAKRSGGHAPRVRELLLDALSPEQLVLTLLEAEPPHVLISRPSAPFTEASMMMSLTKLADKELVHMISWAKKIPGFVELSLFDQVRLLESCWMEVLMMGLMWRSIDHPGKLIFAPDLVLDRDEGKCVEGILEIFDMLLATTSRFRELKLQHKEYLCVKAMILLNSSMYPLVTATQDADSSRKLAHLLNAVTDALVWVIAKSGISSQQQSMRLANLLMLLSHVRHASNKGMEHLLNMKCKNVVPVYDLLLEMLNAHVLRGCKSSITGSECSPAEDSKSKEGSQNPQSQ

Cytochrome P450 2C9 = Cytochrome P450 2C9 (Homo sapiens, UniProt P11712); conditions: Potency
Chain of Cytochrome P450 2C9 (P11712 whole entry): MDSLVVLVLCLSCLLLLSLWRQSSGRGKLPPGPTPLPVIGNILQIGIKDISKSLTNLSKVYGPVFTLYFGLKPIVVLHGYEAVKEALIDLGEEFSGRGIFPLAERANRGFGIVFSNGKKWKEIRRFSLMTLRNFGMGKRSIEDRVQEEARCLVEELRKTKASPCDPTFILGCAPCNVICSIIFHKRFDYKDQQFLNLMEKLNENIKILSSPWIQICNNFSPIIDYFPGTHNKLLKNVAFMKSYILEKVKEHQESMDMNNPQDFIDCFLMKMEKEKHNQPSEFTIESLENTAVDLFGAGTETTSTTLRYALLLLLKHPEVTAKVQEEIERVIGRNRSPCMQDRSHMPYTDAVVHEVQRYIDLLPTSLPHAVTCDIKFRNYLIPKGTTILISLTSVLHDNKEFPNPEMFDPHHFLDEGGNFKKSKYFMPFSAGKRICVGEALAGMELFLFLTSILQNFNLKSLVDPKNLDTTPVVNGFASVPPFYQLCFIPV

[13] = molecular target: Induced myeloid leukemia cell differentiation protein Mcl-1 (Homo sapiens, UniProt Q07820); format: functional
Chain of Induced myeloid leukemia cell differentiation protein Mcl-1 (Q07820 whole entry): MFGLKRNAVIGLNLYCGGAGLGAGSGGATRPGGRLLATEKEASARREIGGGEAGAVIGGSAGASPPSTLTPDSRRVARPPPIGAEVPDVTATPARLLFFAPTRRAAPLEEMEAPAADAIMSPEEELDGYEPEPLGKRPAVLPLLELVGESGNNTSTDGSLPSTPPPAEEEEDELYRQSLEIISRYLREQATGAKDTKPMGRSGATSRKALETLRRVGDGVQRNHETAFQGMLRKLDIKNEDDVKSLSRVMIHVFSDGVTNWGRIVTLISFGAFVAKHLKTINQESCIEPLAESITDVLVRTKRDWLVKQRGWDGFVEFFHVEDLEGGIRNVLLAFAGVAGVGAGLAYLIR

cells = format: functional

Chain of Luciferin 4-monooxygenase (P08659 whole entry): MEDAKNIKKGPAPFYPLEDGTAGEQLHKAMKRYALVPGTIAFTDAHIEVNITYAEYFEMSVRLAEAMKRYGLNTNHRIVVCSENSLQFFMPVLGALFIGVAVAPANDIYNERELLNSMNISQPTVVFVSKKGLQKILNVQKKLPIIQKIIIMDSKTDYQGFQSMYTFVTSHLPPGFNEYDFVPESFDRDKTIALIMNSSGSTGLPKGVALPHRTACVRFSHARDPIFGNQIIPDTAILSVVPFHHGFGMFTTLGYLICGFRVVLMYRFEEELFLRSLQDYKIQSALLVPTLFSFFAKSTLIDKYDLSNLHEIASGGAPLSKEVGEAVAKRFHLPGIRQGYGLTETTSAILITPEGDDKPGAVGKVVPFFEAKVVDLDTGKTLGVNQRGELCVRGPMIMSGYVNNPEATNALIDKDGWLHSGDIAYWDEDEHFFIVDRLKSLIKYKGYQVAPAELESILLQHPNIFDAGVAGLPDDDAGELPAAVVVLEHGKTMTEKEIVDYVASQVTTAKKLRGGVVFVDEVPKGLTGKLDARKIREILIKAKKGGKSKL

CCN(CC)S(=O)(=O)c1cc(NC(=O)C2Cc3ccccc3C(=O)O2)ccc1C (configuration not stated)
EC50 [1]: > 112 µM (not active) | EC50 [2]: > 112 µM (not active) | EC50 [3]: > 50 µM (active)

Cc1nn(C(C)(C)C)c(OC(=O)C2CCCC2)c1S(=O)(=O)c1ccccc1
EC50 (Ion channel NompC): > 29.9 µM (not active) | EC50 (Mucolipin-3): > 9.99 µM (not active)

CC(=O)OC1(c2ccc(C)cc2)CN2CCC1c1ccccc12 (configuration not stated)
IC50 (Ephrin type-A receptor 4): > 100 µM (not active)

COc1ccc(O)c(-c2cc(-c3cccc(Br)c3)[nH]n2)c1
EC50 [4]: 4.73 µM (active) | EC50 (Streptokinase A): > 150 µM (inconclusive) | EC50 [5]: 25.4 µM (active) | EC50 (Streptococcus): 12.4 µM (active) | IC50 (Caspase-3): 97.7 µM (active) | AC50 [6]: 8.06 µM (active) | IC50 [7]: 29.1 µM (active) | IC50 [8]: 26.5 µM (active) | EC50 [9]: 6.53 µM (active) | IC50 [10]: 11.3 µM (active) | EC50 [11]: 16.6 µM (active) | EC50 [12]: 8.85 µM (active)

N#Cc1nc(-c2ccc(OCc3ccccc3)cc2)oc1NCCCN1CCOCC1
EC50 [4]: 13.6 µM (active) | EC50 [12]: 13 µM (active)

O=C(C1Cc2ccccc2CN1S(=O)(=O)c1ccc(F)cc1)N1CCCCCC1 (configuration not stated)
EC50 (Ion channel NompC): > 29.9 µM (not active) | EC50 (Mucolipin-3): 3.72 µM (active)

COc1ccc(N2CCN(C(=O)CCCn3c(=O)[nH]c4ccsc4c3=O)CC2)cc1
IC50 (Estrogen receptor beta): > 50 µM (not active)

CC(C)C[C@@H](CC(=O)N[C@H](CC(=O)N[C@@H]1CCCC[C@H]1C(=O)N[C@H](CC(=O)N[C@@H](CCC(=O)O)CC(=O)O)Cc1ccccc1)C(C)C)NC(=O)[C@@H]1CCCC[C@H]1N
AC50 (Cytochrome P450 2C9): 39.8 µM (inconclusive)

COC(=O)c1ccc(Cl)cc1N(Cc1c(F)cccc1Cl)S(C)(=O)=O
EC50 (Ion channel NompC): 6.15 µM (active) | EC50 (Mucolipin-3): 2.49 µM (active)

COc1cc(NC(=O)c2cccs2)c(C(=O)OCC(=O)NC(=O)NC(C)(C)C)cc1OC
IC50 (Estrogen receptor beta): > 50 µM (not active)

C=CCOc1ccc(Cl)cc1CNC1CCCC1
EC50 [3]: > 50 µM (active)

CCOC(=O)c1cc(-c2ccco2)nc2c1c(C)nn2-c1cccc(Cl)c1
IC50 [13]: 2.51 µM (active)

COc1ccc(-c2noc(CCC(=O)Nc3cccc(C)c3)n2)cc1
EC50 [3]: > 50 µM (active) | IC50 (cells): 15.9 µM (active)

[O-][n+]1onc2c1CCC(=N/O)/C2=N\Nc1ccccc1
IC50 [13]: 4.87 µM (active)
